Holding throughout (format): cell-based
Assay [1] concerns the target T1, human EGFR exon 20 insertion ASV (V769_D770insASV) (Homo sapiens, UniProt P00533, INS769ASV).
T1 construct: expressed in transfected cells; host or cells: Ba/F3 (murine pro-B) cells transduced with lentivirus from pLVX-IRES puro
Briefly: Ba/F3-EGFR-Exon20-ASV cell anti-proliferative assay (CellTiter 96 MTS, 72 h). To be noted: Ba/F3-EGFR-Exon20-ASV cells. The gist of the method:
(§1)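 Ba/F3 cells made IL-3-independent by lentiviral EGFR exon 20 NPG or ASV insertion were exposed 72 h at 37 °C to 4-fold dilutions of compound (top 10,000 nM). Viability read by MTS tetrazolium conversion, absorbance 490 nm after 2 h.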

The target of assay [2] is T2, human EGFR exon 20 insertion NPG (H773_V774insNPG) (Homo sapiens, UniProt P00533, INS772GNP).
T2 construct: expressed in transfected cells; host or cells: Ba/F3 (murine pro-B) cells transduced with lentivirus from pLVX-IRES puro
Briefly: Ba/F3-EGFR-Exon20-NPG cell anti-proliferative assay (CellTiter 96 MTS, 72 h). To be noted: Ba/F3-EGFR-Exon20-NPG cells. The gist of the method:
as §1

Assay [3] addresses T3, human EGFR E746-A750 deletion and T790M Mutation (Homo sapiens, UniProt P00533, DEL746-750/T790M).
T3 construct: expressed in transfected cells; host or cells: Ba/F3 (murine pro-B) cells transduced with lentivirus from pLVX-IRES puro
As to the kind of experiment: Ba/F3-EGFR-Del/T790M cell anti-proliferative assay (CellTiter 96 MTS, 72 h). The settings on record: Ba/F3-EGFR-Del/T790M cells. The gist of the method:
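Ba/F3 cells made IL-3-independent by lentiviral human EGFR E746-A750 del/T790M, puromycin-selected. Cells treated 72 h at 37 °C with compound, 4-fold dilutions from 10,000 nM top concentration. Viability read by MTS tetrazolium-to-formazan conversion, absorbance at 490 nm after 2 h with reagent.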

Assay [4] addresses T4, Her2 exon 20 YVMA insertion (A775_G776ins YVMA) (Homo sapiens, UniProt P04626, INS775YVMA).
T4 construct: expressed in transfected cells; host or cells: Ba/F3 (murine pro-B) cells transduced with lentivirus from pLVX-IRES puro
Briefly: Ba/F3-Her2 Exon20 YVMA cell anti-proliferative assay (CellTiter 96 MTS, 72 h). To be noted: Ba/F3-Her2 Exon20 YVMA cells. The gist of the method: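 IL-3-independent Ba/F3 cells transduced with the YVMA insertion were treated with compound in 4-fold dilutions from 10,000 nM top. After 72 h at 37° C, viable cells were quantified by MTS tetrazolium conversion, with absorbance read at 490 nm after 2 h.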

Results on 23 compounds are retold here after patent US20170166598A1, “HETEROARYL COMPOUNDS FOR KINASE INHIBITION” (ARIAD PHARMACEUTICALS, INC., priority 2014, published 2017).

T2 sequence (P00533 with tags, fused parts or gaps INS772GNP): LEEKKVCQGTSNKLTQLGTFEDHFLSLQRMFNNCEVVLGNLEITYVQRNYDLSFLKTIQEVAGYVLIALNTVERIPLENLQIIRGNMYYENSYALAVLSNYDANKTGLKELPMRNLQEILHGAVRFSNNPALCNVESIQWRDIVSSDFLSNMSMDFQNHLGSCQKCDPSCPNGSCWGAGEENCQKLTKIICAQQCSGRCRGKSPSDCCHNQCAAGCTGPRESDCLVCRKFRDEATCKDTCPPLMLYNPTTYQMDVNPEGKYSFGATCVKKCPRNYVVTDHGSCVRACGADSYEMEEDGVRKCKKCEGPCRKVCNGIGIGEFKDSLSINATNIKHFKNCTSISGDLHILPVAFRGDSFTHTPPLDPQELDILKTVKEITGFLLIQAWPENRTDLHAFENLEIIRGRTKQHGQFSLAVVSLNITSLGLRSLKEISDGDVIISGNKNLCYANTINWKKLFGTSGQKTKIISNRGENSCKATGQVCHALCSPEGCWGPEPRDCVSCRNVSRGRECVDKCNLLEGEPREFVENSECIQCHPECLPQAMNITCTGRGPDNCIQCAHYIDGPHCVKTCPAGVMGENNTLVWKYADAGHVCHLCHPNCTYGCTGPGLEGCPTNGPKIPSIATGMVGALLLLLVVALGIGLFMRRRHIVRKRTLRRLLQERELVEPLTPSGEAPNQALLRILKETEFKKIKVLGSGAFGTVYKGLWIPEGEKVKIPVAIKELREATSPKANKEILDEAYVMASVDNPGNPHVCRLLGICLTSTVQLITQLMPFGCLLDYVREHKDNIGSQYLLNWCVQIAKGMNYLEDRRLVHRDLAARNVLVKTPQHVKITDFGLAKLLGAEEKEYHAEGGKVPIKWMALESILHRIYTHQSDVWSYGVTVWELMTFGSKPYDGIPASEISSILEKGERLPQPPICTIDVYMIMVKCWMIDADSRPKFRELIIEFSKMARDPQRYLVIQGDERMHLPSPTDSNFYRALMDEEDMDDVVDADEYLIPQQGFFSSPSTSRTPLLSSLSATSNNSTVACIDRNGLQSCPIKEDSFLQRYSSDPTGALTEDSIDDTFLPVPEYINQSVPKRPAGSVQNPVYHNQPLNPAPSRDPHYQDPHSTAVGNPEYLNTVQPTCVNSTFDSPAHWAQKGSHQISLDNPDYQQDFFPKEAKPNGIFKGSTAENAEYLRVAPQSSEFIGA
T4 sequence (P04626 with tags, fused parts or gaps INS775YVMA): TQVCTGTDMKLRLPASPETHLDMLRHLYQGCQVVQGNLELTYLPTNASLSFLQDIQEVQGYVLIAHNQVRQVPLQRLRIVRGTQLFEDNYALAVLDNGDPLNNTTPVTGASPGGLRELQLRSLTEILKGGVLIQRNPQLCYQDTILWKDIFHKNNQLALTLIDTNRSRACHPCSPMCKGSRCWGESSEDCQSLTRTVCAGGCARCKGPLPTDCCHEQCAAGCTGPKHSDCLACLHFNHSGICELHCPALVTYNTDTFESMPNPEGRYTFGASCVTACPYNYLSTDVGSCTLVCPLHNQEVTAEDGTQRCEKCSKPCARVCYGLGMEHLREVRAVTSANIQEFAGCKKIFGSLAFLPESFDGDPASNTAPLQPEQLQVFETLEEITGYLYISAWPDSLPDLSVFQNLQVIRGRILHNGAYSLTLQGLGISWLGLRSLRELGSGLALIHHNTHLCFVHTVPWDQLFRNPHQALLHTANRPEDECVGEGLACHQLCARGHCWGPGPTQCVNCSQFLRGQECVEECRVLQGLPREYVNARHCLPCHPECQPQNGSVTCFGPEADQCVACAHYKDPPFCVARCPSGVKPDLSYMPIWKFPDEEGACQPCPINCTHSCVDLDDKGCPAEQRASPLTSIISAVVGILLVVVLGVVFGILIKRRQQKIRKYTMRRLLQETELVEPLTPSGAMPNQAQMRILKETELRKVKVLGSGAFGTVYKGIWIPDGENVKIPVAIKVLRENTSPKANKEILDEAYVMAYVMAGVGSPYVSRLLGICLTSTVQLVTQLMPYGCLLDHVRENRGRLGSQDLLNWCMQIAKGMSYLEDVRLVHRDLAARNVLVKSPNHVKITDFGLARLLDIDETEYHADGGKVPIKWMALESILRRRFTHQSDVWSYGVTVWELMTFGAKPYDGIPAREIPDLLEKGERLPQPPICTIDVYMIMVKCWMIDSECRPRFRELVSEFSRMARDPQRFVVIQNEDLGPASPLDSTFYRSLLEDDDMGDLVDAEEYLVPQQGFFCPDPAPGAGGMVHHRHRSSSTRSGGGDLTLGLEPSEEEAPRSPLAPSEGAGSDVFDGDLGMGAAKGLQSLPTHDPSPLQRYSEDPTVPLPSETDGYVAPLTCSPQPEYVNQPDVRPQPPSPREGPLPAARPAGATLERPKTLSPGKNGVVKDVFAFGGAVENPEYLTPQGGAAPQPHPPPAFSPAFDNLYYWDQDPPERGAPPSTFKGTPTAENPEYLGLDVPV
T3 sequence (P00533 with tags, fused parts or gaps DEL746-750/T790M): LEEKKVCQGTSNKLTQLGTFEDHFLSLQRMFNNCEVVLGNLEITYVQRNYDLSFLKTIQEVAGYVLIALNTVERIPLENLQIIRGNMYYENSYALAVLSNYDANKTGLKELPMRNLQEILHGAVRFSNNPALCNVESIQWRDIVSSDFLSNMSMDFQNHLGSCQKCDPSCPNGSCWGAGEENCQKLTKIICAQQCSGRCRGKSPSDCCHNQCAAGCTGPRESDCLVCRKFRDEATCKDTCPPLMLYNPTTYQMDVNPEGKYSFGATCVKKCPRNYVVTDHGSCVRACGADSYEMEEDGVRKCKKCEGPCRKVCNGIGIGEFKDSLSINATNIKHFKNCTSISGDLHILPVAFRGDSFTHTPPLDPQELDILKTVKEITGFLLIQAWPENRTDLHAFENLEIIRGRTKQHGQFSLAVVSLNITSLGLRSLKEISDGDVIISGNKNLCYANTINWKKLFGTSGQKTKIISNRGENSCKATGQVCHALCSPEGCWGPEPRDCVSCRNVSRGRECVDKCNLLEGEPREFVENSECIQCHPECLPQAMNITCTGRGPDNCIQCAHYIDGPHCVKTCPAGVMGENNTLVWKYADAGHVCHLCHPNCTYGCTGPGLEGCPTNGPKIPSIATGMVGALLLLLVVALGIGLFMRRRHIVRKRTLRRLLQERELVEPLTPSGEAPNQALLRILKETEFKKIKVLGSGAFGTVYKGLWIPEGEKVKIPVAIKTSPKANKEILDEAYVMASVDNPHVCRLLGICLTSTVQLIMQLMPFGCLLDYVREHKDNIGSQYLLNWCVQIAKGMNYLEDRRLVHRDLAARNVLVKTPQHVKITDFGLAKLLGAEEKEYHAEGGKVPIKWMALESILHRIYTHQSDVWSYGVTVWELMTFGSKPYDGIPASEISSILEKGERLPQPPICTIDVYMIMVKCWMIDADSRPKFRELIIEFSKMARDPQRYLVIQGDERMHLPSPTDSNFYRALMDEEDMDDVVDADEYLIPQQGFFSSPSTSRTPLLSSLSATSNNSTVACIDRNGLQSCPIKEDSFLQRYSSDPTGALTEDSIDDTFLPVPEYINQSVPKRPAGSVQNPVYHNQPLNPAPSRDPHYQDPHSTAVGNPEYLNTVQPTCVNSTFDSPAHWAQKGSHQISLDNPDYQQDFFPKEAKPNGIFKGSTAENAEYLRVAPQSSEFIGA
T1 sequence (P00533 with tags, fused parts or gaps INS769ASV): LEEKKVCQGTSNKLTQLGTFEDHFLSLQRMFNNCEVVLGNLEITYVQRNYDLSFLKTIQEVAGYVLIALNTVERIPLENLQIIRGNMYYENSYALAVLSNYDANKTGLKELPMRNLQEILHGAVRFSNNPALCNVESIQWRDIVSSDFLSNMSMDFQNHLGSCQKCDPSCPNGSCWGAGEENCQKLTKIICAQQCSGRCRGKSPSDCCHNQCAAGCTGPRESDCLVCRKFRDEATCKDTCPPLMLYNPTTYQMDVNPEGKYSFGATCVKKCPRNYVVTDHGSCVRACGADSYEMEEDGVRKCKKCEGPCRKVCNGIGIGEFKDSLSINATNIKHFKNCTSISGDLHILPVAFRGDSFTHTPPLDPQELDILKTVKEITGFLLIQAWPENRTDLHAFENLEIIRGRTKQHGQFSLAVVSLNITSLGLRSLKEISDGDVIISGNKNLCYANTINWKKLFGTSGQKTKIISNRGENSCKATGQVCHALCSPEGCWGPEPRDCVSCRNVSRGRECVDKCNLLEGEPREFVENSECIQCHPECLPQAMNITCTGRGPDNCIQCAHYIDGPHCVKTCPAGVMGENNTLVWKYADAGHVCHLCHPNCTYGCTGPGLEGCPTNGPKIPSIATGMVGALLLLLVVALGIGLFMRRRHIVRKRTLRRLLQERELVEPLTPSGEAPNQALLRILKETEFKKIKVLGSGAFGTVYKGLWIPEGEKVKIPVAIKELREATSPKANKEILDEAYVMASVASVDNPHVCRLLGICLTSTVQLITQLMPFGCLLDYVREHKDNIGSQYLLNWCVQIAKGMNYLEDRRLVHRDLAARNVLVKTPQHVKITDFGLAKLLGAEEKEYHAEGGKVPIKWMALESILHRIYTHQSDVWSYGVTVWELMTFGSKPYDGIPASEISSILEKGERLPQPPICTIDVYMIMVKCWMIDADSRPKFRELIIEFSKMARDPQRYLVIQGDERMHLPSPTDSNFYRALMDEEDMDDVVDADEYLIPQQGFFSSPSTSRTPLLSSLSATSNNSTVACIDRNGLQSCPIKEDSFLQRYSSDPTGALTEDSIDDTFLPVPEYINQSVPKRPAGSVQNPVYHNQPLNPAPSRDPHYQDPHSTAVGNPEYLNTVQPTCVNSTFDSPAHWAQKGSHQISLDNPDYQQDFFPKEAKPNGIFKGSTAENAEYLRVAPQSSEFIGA

What is called IC50 is the concentration that inhibits the measured activity by half. Higher therefore signals lower potency. For the compound `C=CC(=O)Nc1cc(Nc2nccc(-c3c(N4CC[C@H](O)C4)n4c5c(cccc35)CCC4)n2)c(OC)cc1N(C)CCN(C)C` [Example 75], the IC50 in assay [1], in assay [2] and in assay [4] was less than 0.1 µM throughout. In addition, the “EGFR exon 19 deletion and exon 20 T790M mutation IC50” value in assay [3] was “A (IC50 value for the indicated mutant below about 100 nM)”.
For the compound `COc1cc(F)c(NC(=O)/C=C/CN(C)C)cc1Nc1ncc(Cl)c(-c2cn3c4c(cccc24)OCC3)n1` [Example 82, (E)-N-(5-((5-chloro-4-(2,3-dihydro-[1,4]oxazino[2,3,4-hi]indol-6-yl)pyrimidin-2-yl)amino)-2-fluoro-4-methoxyphenyl)-4-(dimethylamino)but-2-enamide], the half-maximal inhibitory concentration (IC50) is 0.5 to 1 µM in assay [1], 0.1 to 0.5 µM in assay [2] and more than 1 µM in assay [4]. In addition, the “EGFR exon 19 deletion and exon 20 T790M mutation IC50” value in assay [3] is “A (IC50 value for the indicated mutant below about 100 nM)”.
The like results for `C=CC(=O)Nc1cc(Nc2ncc(-c3cn[nH]c3)c(-c3cn4c5c(cccc35)CCC4)n2)c(OC)cc1N(C)CCN(C)C` [Example 85, N-(5-((4-(5,6-dihydro-4H-pyrrolo[3,2,1-ij]quinolin-1-yl)-5-(1H-pyrazol-4-yl)pyrimidin-2-yl)amino)-2-((2-(dimethylamino)ethyl)(methyl)amino)-4-methoxyphenyl)acrylamide] were, in that order, less than 0.1 µM, less than 0.1 µM, less than 0.1 µM and “A (IC50 value for the indicated mutant below about 100 nM)”.
In the case of `C=CC(=O)Nc1cc(Nc2ncc(-c3nc(C)no3)c(-c3cn4c5c(cccc35)CCC4)n2)c(OC)cc1N(C)CCN(C)C` [Example 86], the half-maximal inhibitory concentration (IC50) in assay [1], in assay [2] and in assay [4] was less than 0.1 µM throughout. Further, in assay [3], the “EGFR exon 19 deletion and exon 20 T790M mutation IC50” value is “A (IC50 value for the indicated mutant below about 100 nM)”.
Regarding `C=CC(=O)Nc1cc(Nc2ncc(C(CC)OC)c(-c3cn4c5c(cccc35)CCC4)n2)c(OC)cc1N(C)CCN(C)C` (centres unmarked) [Example 87], the results for the half-inhibitory concentration (IC50) in assay [1], in assay [2] and in assay [4] were 0.1 to 0.5 µM, less than 0.1 µM and 0.1 to 0.5 µM, respectively. Moreover, the “EGFR exon 19 deletion and exon 20 T790M mutation IC50” value in assay [3] is recorded as “A (IC50 value for the indicated mutant below about 100 nM)”.
With `C=CC(=O)Nc1cc(Nc2ncc(C(=O)CC)c(-c3cn4c5c(cccc35)CCC4)n2)c(OC)cc1N(C)CCN(C)C` [Example 88], the IC50 in assay [1], in assay [2] and in assay [4] was less than 0.1 µM in each case. Also, the “EGFR exon 19 deletion and exon 20 T790M mutation IC50” value in assay [3] is given as “A (IC50 value for the indicated mutant below about 100 nM)”.
In the case of `C=CC(=O)Nc1cc(Nc2ncc(C(=O)OC)c(-c3cn4c5c(cccc35)CCC4)n2)c(OC)cc1N(C)CC1CCCN1C` (centres unmarked) [Example 89], the half-inhibitory concentration (IC50) in assay [1], in assay [2] and in assay [4] was less than 0.1 µM each time. For the same compound, the “EGFR exon 19 deletion and exon 20 T790M mutation IC50” value in assay [3] is recorded as “A (IC50 value for the indicated mutant below about 100 nM)”.
For the compound `C=CC(=O)Nc1cc(Nc2nccc(-c3c(N4CCC(OC)C4)n4c5c(cccc35)CCC4)n2)c(OC)cc1N(C)CCN(C)C` (centres unmarked) [Example 90], the values for the concentration for half-maximal inhibition (IC50) in assay [1], in assay [2] and in assay [4] were 0.1 to 0.5 µM, less than 0.1 µM and 0.1 to 0.5 µM, respectively. In addition, the “EGFR exon 19 deletion and exon 20 T790M mutation IC50” value in assay [3] is given as “A (IC50 value for the indicated mutant below about 100 nM)”.
For `C=CC(=O)Nc1cc(Nc2ncc(NC(=O)CC)c(-c3cn4c5c(cccc35)CCC4)n2)c(OC)cc1N(C)CCN(C)C` [Example 91], the IC50 in assay [1] was less than 0.1 µM; in assay [2] it was less than 0.1 µM; in assay [4], 0.1 to 0.5 µM. The “EGFR exon 19 deletion and exon 20 T790M mutation IC50” value in assay [3] is “A (IC50 value for the indicated mutant below about 100 nM)”.
`C=CC(=O)Nc1cc(Nc2nccc(-c3c(N4CCC(F)C4)n4c5c(cccc35)CCC4)n2)c(OC)cc1N(C)CCN(C)C` (centres unmarked) [Example 92]: the 50% inhibitory concentration (IC50) was less than 0.1 µM in assay [1], less than 0.1 µM in assay [2] and 0.1 to 0.5 µM in assay [4]. Moreover, the “EGFR exon 19 deletion and exon 20 T790M mutation IC50” value in assay [3] is “A (IC50 value for the indicated mutant below about 100 nM)”.
As to `C=CC(=O)Nc1cc(Nc2nccc(-c3c(N4CCCC4)n4c5c(cccc35)CCC4)n2)c(OC)cc1N(C)CCN(C)C` [Example 93], the 50% inhibitory concentration (IC50) in assay [1] was less than 0.1 µM; in assay [2] it was less than 0.1 µM; in assay [4] it was 0.1 to 0.5 µM. Also, the “EGFR exon 19 deletion and exon 20 T790M mutation IC50” value in assay [3] is recorded as “A (IC50 value for the indicated mutant below about 100 nM)”.
Consider `C=CC(=O)Nc1cc(Nc2nccc(-c3c(N4CCN(C)C(=O)C4)n4c5c(cccc35)CCC4)n2)c(OC)cc1N(C)CCN(C)C` [Example 94], for which the IC50 in assay [1] was 0.1 to 0.5 µM; in assay [2] it was 0.1 to 0.5 µM; in assay [4], more than 1 µM. The “EGFR exon 19 deletion and exon 20 T790M mutation IC50” value in assay [3] was “C (IC50 value for the indicated mutant between greater than about 500 to about 1 μM)”.
As for `C=CC(=O)Nc1cc(Nc2ncc(OCC(F)F)c(-c3cn4c5c(cccc35)CCC4)n2)c(OC)cc1N(C)CCN(C)C` [Example 95], the IC50 was less than 0.1 µM in assay [1], less than 0.1 µM in assay [2] and 0.1 to 0.5 µM in assay [4]. For the same compound, the “EGFR exon 19 deletion and exon 20 T790M mutation IC50” value in assay [3] is given as “A (IC50 value for the indicated mutant below about 100 nM)”.
For `C=CC(=O)Nc1cc(Nc2ncc(-c3nccn3C)c(-c3cn4c5c(cccc35)CCC4)n2)c(OC)cc1N(C)CCN(C)C` [Example 98], the half-inhibitory concentration (IC50) in assay [1] was less than 0.1 µM; in assay [2], less than 0.1 µM; in assay [4], 0.1 to 0.5 µM. For the same compound, in assay [3], the “EGFR exon 19 deletion and exon 20 T790M mutation IC50” value is recorded as “A (IC50 value for the indicated mutant below about 100 nM)”.
Regarding `C=CC(=O)Nc1cc(Nc2ncc(-c3cnn(CC)c3)c(-c3cn4c5c(cccc35)CCC4)n2)c(OC)cc1N(C)CCN(C)C` [Example 99], the half-maximal inhibitory concentration (IC50) in assay [1], in assay [2] and in assay [4] was less than 0.1 µM each time. The “EGFR exon 19 deletion and exon 20 T790M mutation IC50” value in assay [3] was “A (IC50 value for the indicated mutant below about 100 nM)”.
Regarding `C=CC(=O)Nc1cc(Nc2ncc(-c3cn(C)nc3C)c(-c3cn4c5c(cccc35)CCC4)n2)c(OC)cc1N(C)CCN(C)C` [Example 100], the IC50 in assay [1], in assay [2] and in assay [4] was less than 0.1 µM in each case. The “EGFR exon 19 deletion and exon 20 T790M mutation IC50” value in assay [3] is “A (IC50 value for the indicated mutant below about 100 nM)”.
Regarding `C=CC(=O)Nc1cc(Nc2ncc(-c3cc(C)nn3C)c(-c3cn4c5c(cccc35)CCC4)n2)c(OC)cc1N(C)CCN(C)C` [Example 101], the 50% inhibitory concentration (IC50) in assay [1], in assay [2] and in assay [4] was less than 0.1 µM throughout. The “EGFR exon 19 deletion and exon 20 T790M mutation IC50” value in assay [3] was “A (IC50 value for the indicated mutant below about 100 nM)”.
Consider `C=CC(=O)Nc1cc(Nc2ncc(-c3cnn(C)c3C)c(-c3cn4c5c(cccc35)CCC4)n2)c(OC)cc1N(C)CCN(C)C` [Example 102], for which the concentration for half-maximal inhibition (IC50) in assay [1], in assay [2] and in assay [4] was less than 0.1 µM in each case. Moreover, the “EGFR exon 19 deletion and exon 20 T790M mutation IC50” value in assay [3] is “A (IC50 value for the indicated mutant below about 100 nM)”.
Take `C=CC(=O)Nc1cc(Nc2ncc(C(=O)OC(C)C)c(-c3cn4c5c(cccc35)CCC4)n2)c(OC)cc1N(C)CCN(C)C` [Example 103]: the IC50 in assay [1], in assay [2] and in assay [4] was less than 0.1 µM in each case. For the same compound, in assay [3], the “EGFR exon 19 deletion and exon 20 T790M mutation IC50” value is “A (IC50 value for the indicated mutant below about 100 nM)”.
`C=CC(=O)Nc1cc(Nc2ncc(OCCOC)c(-c3cn4c5c(cccc35)CCC4)n2)c(OC)cc1N(C)CCN(C)C` [Example 104]: the IC50 in assay [1] was less than 0.1 µM; in assay [2], less than 0.1 µM; in assay [4], 0.1 to 0.5 µM. In addition, the “EGFR exon 19 deletion and exon 20 T790M mutation IC50” value in assay [3] was “A (IC50 value for the indicated mutant below about 100 nM)”.
`C=CC(=O)Nc1cc(Nc2ncc(N3CCCC3)c(-c3cn4c5c(cccc35)CCC4)n2)c(OC)cc1N(C)CCN(C)C` [Example 106]: the IC50 lay in the range of 0.1 to 0.5 µM in assay [1], 0.1 to 0.5 µM in assay [2] and 0.5 to 1 µM in assay [4]. Moreover, the “EGFR exon 19 deletion and exon 20 T790M mutation IC50” value in assay [3] is given as “A (IC50 value for the indicated mutant below about 100 nM)”.
Consider `C=CC(=O)Nc1cc(Nc2ncc(-c3ncccn3)c(-c3cn4c5c(cccc35)CCC4)n2)c(OC)cc1N(C)CCN(C)C` [Example 108], for which the half-maximal inhibitory concentration (IC50) was 0.1 to 0.5 µM in assay [1], less than 0.1 µM in assay [2] and more than 1 µM in assay [4]. Besides, the “EGFR exon 19 deletion and exon 20 T790M mutation IC50” value in assay [3] is listed as “B (IC50 value for the indicated mutant between about 100 to about 500 nM)”.
On to `C=CC(=O)Nc1cc(Nc2nccc(-c3c(-c4ncccn4)n4c5c(cccc35)CCC4)n2)c(OC)cc1N(C)CCN(C)C` [Example 109], for which the IC50 in assay [1] was more than 1 µM; in assay [2] it was 0.1 to 0.5 µM; in assay [4], more than 1 µM. The “EGFR exon 19 deletion and exon 20 T790M mutation IC50” value in assay [3] is “B (IC50 value for the indicated mutant between about 100 to about 500 nM)”.
